According to US8039532B2, “Heterocyclic compound, ultraviolet absorbent and composition containing the same” (Fujifilm Corporation, priority 2007, dated 2011):

What was measured:
Format in all cases: physicochemical
[1] = Light fastness of ethyl acetate solutions under xenon lamp irradiation (Example 39); settings: ethyl acetate solution, xenon lamp with UV filter removed, 170,000 lux, one week; transmittance at maximum absorption wavelength
Description: Was dissolved 5 mg of the exemplified compound (1) in 100 mL of ethyl acetate and then the resulting solution was diluted with ethyl acetate so that absorbance became the range of from 0.95 to 1.05. Similarly, sample solutions of Exemplified Compounds (2), (11), (12), (24), (81) and (82) and comparative compounds A and B, respectively, were prepared. The absorbance of each sample solution was determined in a 1 cm quartz cell by using Spectrophotometer UV-3600 (product name) manufactured by Shimadzu Corporation. The cell containing the sample solution was photoirradiated by a xenon lamp with its UV filter removed at an illuminance of 170,000 lux, and the amount of each ultraviolet absorbent remaining after irradiation for one week was determined. The residual amount was calculated according to the following Formula: Residual amount (%)=100×(100−Transmittance after irradiation)/(100−Transmittance before irradiation)
The transmittance is a value determined at the maximum absorption wavelength of each compound.

[2] = UV spectrum of sample solutions in ethyl acetate (Example 38); settings: ethyl acetate solution, 1 cm quartz cell
Description: The absorption maximum wavelength and the half width specified in the present invention can be determined easily by a skilled person in the art. The measuring methods are described, for example, in Chemical Society of Japan Ed., “Experimental Chemistry Lecture, Chapter 7, Spectroscopy II”, 4th Ed., (Maruzen, 1992), p. 180 to 186. Specifically, they are determined by dissolving a sample in a suitable solvent and measuring the spectrum in a spectrophotometer by using two quartz or glass cells for the sample and control. For example, the solvent for use is required to be capable of dissolving the sample, have no absorption in the measurement wavelength range, have smaller interaction with the solute molecule, and have relatively low volatility. Any solvent may be used, as long as it satisfies the conditions above. In the present invention, the measurement is made by using ethyl acetate (EtOAc) as the solvent.
The absorption maximum wavelength and the half width of the dyes in the present invention are determined by preparing a solution in ethyl acetate as the solvent at a concentration of approximately 5×10^−5 mol·dm^−3 and by measurement while using a quartz cell having an optical path length of 10 mm.
The spectral half width is described, for example, in Chemical Society of Japan Ed., “Experimental Chemistry Lecture, Chapter 3 Basic Operation III”, 4th Ed., (Maruzen, 1991), p. 154. The half width is described in the literature above by using wave number as abscissa, but the half width is plotted against wavelength in the present invention and thus, the unit of the half value width is nm. Specifically, it is defined as the width of the absorption band at an absorbance of ½ of that at the absorption maximum wavelength and used as an indicator of the absorption spectral shape.
One mg of the Exemplified Compound (1) was dissolved in 100 ml of ethyl acetate, to give a sample solution. Similarly, sample solutions of Exemplified Compounds (2), (11), (12), (24), (81), (82), (87) and (88), respectively, were prepared. In addition, two mg of the comparative compound 1 was dissolved in 100 ml of ethyl acetate, to give a sample solution. Similarly, sample solutions of the comparative compounds 2 (the exemplified compound VIII described in JP-B-49-11155), 11 and 12, respectively, were also prepared. The UV spectrum of each sample solution was determined in a 1 cm quartz cell by using Spectrophotometer UV-3600 (product name) manufactured by Shimadzu Corporation. Based on the thus-obtained spectrum chart, were calculated the maximum absorption wavelength, the molar extinction coefficient (ε) at the maximum absorption wavelength and the half width (a width of absorption band corresponding to a half extinction at the maximum absorption wavelength).

[3] = Degree of coloring of UV agent-containing polyethylene terephthalate films (Example 43); parameters: key to Colored (visual): ∘: Not colored; Δ: Slightly colored; x: Distinctly colored; settings: PET film 50 μm; for absorbance at 420 nm / absorbance at 440 nm / absorbance at 460 nm: quantity giving 1% at 400 nm; for Colored (visual): visual examination; for absorbance at 400 nm: quantity adjusted so that value at 400 nm became 1%
Description: To 15 g of polyethylene terephthalate, the exemplified compounds (81) and (82) were added, respectively, in a quantity such that absorbance at 400 nm became 1% at the time of forming a film with a thickness of 50 μm. After fusion mixing at 265° C., UV agent-containing polymer films (401) and (402) were prepared by cooling and stretching. Further, UV agent-containing polymer films (403) and (404) were prepared by mixing and thin film-making in the same manner as the above films, except that a comparative compound Za and the abovementioned comparative compound 12 were used in place of the exemplified compounds.
A degree of coloring in each of the prepared samples was evaluated by measuring absorbance of the sample at 420 nm 440 nm and 460 nm, and also by examining them visually.

Row | Compound | Residual amount (%) [1] | Half width (nm) [2] | ε, molar extinction coefficient at the maximum absorption wavelength [2] | λmax (nm), maximum absorption wavelength [2] | coloring of the film (in words) [3] | absorbance at 420 nm [3] | absorbance at 440 nm [3] | absorbance at 460 nm [3] | Colored (visual) [3] | absorbance at 400 nm [3]
1 | CCCCC(CC)COc1ccc(OCC(CC)CCCC)c2c1SC(=C(C#N)C(=O)OCC)S2 (centres unmarked) [Comparative compound 12] |  | 39 nm | 28000 | 360 nm | coloring was also observed | 65% | 72% | 78% | Δ to x | 1%
2 | CCCCC(CC)C(=O)Oc1ccc(OC(=O)C(CC)CCCC)c2c1SC(=C(C#N)C#N)S2 (centres unmarked) [Comparative compound 1] |  | 45 nm | 24000 | 369 nm |  |  |  |  |  | 
3 | CCCCCCCCCCCCOc1ccc(OCCCCCCCCCCCC)c2c1SC(=C(C#N)C#N)S2 [Comparative compound 2] |  | 46 nm | 23000 | 363 nm |  |  |  |  |  | 

Other lines, results leading:

Row | Residual amount (%) [1] | Half width (nm) [2] | ε, molar extinction coefficient at the maximum absorption wavelength [2] | λmax (nm), maximum absorption wavelength [2] | coloring of the film (in words) [3] | absorbance at 420 nm [3] | absorbance at 440 nm [3] | absorbance at 460 nm [3] | Colored (visual) [3] | absorbance at 400 nm [3] | Compound
4 | 76% |  |  |  |  |  |  |  |  |  | COc1ccc(C(=O)c2ccc(OC)cc2O)c(O)c1 [Comparative compound A]
5 |  |  |  |  | more colored yellow | 45% | 65% | 85% | x | 1% | CC(C)(C)CC(C)(C)c1cc(Cc2cc(C(C)(C)CC(C)(C)C)cc(-n3nc4ccccc4n3)c2O)c(O)c(-n2nc3ccccc3n2)c1 [Za]
6 | 38% |  |  |  |  |  |  |  |  |  | COc1ccc(C(=O)CC(=O)c2ccc(C(C)(C)C)cc2)cc1 [Comparative compound B]
